In patent publication US20120108501A1, “Protease Inhibitors” (priority 2009, published 2012):
Where a name gives a salt, the structure may show the parent alone. Read-outs that look alike come from different tables or passages of the source.

What was measured:
[1] = Pharmacokinetics of PEGylated protease inhibitor prodrugs in rats; type: in vivo, male Sprague-Dawley rats; set-up: AUCall / AUC: concentration or dose not given beside the values; conditions: prodrug in plasma; for MRT last / AUC / Cmax / half-life / concentration at 24 hr: male, Sprague-Dawley, rat; for AUC / Cmax: mean ± SD; for Cmax: read-out: Cmax; for half-life: read-out: t½(z) (converted); for concentration at 24 hr: read-out: Cmin(24 hr)
Experimental: (§1) Pharmacokinetic analysis of protease inhibitors described herein was conducted. To evaluate the pharmacokinetics of PEGylated protease inhibitor conjugates with releasable lipophilic attachments, test compounds were administered to male Sprague-Dawley rats.
(§2) At various times following test article administration, serial blood samples were collected from indwelling jugular vein catheters and transferred to micro-tubes containing 7.5 μL of 20% w/v K2EDTA as an anticoagulant. Following processing of the blood samples to plasma (10 minutes at 10000 rpm, Centrifuge Model: Kubota 3500), plasma concentrations of the test article or corresponding PEGylated molecule released from the test article was measured using LC-MS/MS methods. Pharmacokinetic parameters were estimated using noncompartmental methods.
Table 3 presents a summary of pharmacokinetic parameters of PEGylated protease inhibitor prodrugs, wherein Cmax is the maximum (peak) concentration, AUCall represents the area under the concentration-time curve from zero to time of last concentration value, T½ is half life, and MRTlast is the mean residence time to last observable concentration

[2] = Pharmacokinetics of released PEGylated protease inhibitor following P.O. administration of prodrugs in rats; type: in vivo, male Sprague-Dawley rats; set-up: AUCall Mean: concentration or dose not given beside the values; C24 Mean: unit not given here; conditions: rats (n = 4-5); for C24 Mean: concentration at 24 hours
Experimental: as §1, §2

[3] = mPEG6-atazanavir in plasma after PO administration of mPEG6-ATV or of the listed prodrug
[4] = mPEG5-atazanavir in plasma after PO administration of mPEG5-ATV or of the listed prodrug

Compound | MRT last ([1]; in vivo) [h] | AUC ([1]; in vivo) [ng·h/mL] | Cmax ([1]; in vivo) [ng/mL] | AUCall Mean [2, 3] [ng·h/mL] | Cmax Mean [2, 3] [ng/mL] | MRT last Mean [2, 3] [h] | Tmax Median [2, 3] [h] | also measured
COCCOCCOCCOC(=O)N[C@H](C(=O)N[C@@H](Cc1ccccc1)[C@H](CN(Cc1ccc(-c2ccccn2)cc1)NC(=O)[C@@H](NC(=O)OC)C(C)(C)C)OC(=O)[C@H](Cc1ccccc1)NC(=O)[C@@H](N)C(C)C)C(C)(C)C [Val-Phe-mPEG3-Atazanavir, Val-Phe-mPEG3-Atazanavir Hydrochloride] | 1.68 ± 0.297 | 700 ± 361 | 334 ± 133 |  |  |  |  | half-life ([1]; in vivo): 135 ± 76.8 min
COCCOCCOCCOCCOCCOC(=O)N[C@H](C(=O)N[C@@H](Cc1ccccc1)[C@H](CN(Cc1ccc(-c2ccccn2)cc1)NC(=O)[C@@H](NC(=O)OC)C(C)(C)C)OC(=O)[C@H](CC(C)C)NC(=O)[C@@H](N)Cc1ccccc1)C(C)(C)C [Phe-Leu-mPEG5-Atazanavir HCl, Phe-Leu-mPEG5-Atazanavir Hydrochloride] | 1.46 ± 0.396 | 42.4 ± 11.6 | 17 ± 4.2 |  |  |  |  | half-life ([1]; in vivo): 91.2 min; Cmin(24 hr) ([1]; 24 hr): BLQ
COCCOCCOCCOCCOCCOC(=O)N[C@H](C(=O)N[C@@H](Cc1ccccc1)[C@H](CN(Cc1ccc(-c2ccccn2)cc1)NC(=O)[C@@H](NC(=O)OC)C(C)(C)C)OC(=O)CNC(=O)[C@@H](N)Cc1ccccc1)C(C)(C)C [Phe-Gly-mPEG5-Atazanavir HCl, Phe-Gly-mPEG5-Atazanavir Hydrochloride] | 0.357 ± 0.129 | 0.341 ± 0.313 | 0.895 ± 0.808 |  |  |  |  | 
COCCOCCOCCOCCOCCOC(=O)N[C@@H](C(=O)N[C@@H](Cc1ccccc1)[C@H](CN(Cc1ccc(-c2ccccn2)cc1)NC(=O)[C@H](NC(=O)OC)C(C)(C)C)OC(=O)CCCC(=O)O[C@@H]1[C@@H](O)[C@@H](O)O[C@@H]1[C@H](O)CO)C(C)(C)C [(5R,10S,11S,14R)-11-benzyl-5,14-di-tert-butyl-3,6,13,16-tetraoxo-8-(4-(pyridin-2-yl)benzyl)-2,17,20,23,26,29,32-heptaoxa-4,7,8,12,15-pentaazatritriacontan-10-yl (2R,3R,4R,5S)-2-((R)-1,2-dihydroxyethyl)-4,5-dihydroxytetrahydrofuran-3-yl glutarate] |  |  |  |  |  |  |  | MRT last ([1]; oral): 11.4 ± 7.37 h; concentration at 24 hr ([1]; oral, 24 hr): 2.64 ± 2.87 ng/mL; AUC ([1]; oral): 78.5 ± 78.2 ng·h/mL; Cmax ([1]; oral): 13.1 ± 12.4 ng/mL
COCCOCCOCCOC(=O)N[C@H](C(=O)N[C@@H](Cc1ccccc1)[C@H](CN(Cc1ccc(-c2ccccn2)cc1)NC(=O)[C@@H](NC(=O)OC)C(C)(C)C)OC(=O)[C@H](Cc1ccccc1)NC(=O)[C@@H](N)Cc1ccccc1)C(C)(C)C [Phe-Phe-mPEG3-Atazanavir, Phe-Phe-mPEG3-Atazanavir Hydrochloride] | 6.27 ± 1.31 | 609 ± 157 | 112 ± 31.6 |  |  |  |  | concentration at 24 hr ([1]; in vivo, 24 hr): 3.15 ± 0.946 ng/mL; half-life ([1]; in vivo): 499 ± 72.6 min
COCCOCCOCCOCCOCCOC(=O)N[C@H](C(=O)N[C@@H](Cc1ccccc1)[C@H](CN(Cc1ccc(-c2ccccn2)cc1)NC(=O)[C@@H](NC(=O)OC)C(C)(C)C)OC(=O)CNC(=O)[C@@H](N)CC(C)C)C(C)(C)C [Leu-Gly-mPEG5-Atazanavir HCl, Leu-Gly-mPEG5-Atazanavir Hydrochloride] | 2.85 ± 3.68 | 1.53 ± 2.93 | 0.479 ± 0.572 |  |  |  |  | 
COCCOCCOCCOCCOCCOCCOC(=O)N[C@H](C(=O)N[C@@H](Cc1ccccc1)[C@@H](O)CN(Cc1ccc(-c2ccccn2)cc1)NC(=O)[C@@H](NC(=O)OC)C(C)(C)C)C(C)(C)C [PEG6-ATV, mPEG6-atazanavir] |  |  |  | 97.6 | 26.8 | 4.93 | 0.250 | 
CCCCCC(=O)O[C@@H](CN(Cc1ccc(-c2ccccn2)cc1)NC(=O)[C@@H](NC(=O)OC)C(C)(C)C)[C@H](Cc1ccccc1)NC(=O)[C@@H](NC(=O)OCCOCCOCCOCCOCCOCCOC)C(C)(C)C [C5H11CO-mPEG6-ATV, C5H11CO-mPEG6-atazanavir] |  |  |  | 78.1 | 21.4 | 5.01 | 0.500 | 
CCC(=O)O[C@@H](CN(Cc1ccc(-c2ccccn2)cc1)NC(=O)[C@@H](NC(=O)OC)C(C)(C)C)[C@H](Cc1ccccc1)NC(=O)[C@@H](NC(=O)OCCOCCOCCOCCOCCOCCOC)C(C)(C)C [C2H5CO-mPEG6-ATV, mPEG6-Atazanavir Propionate] |  |  |  | 13.2 | 1.86 | 8.28 | 2.00 | 
COCCOCCOCCOCCOCCOC(=O)N[C@H](C(=O)N[C@@H](Cc1ccccc1)[C@H](CN(Cc1ccc(-c2ccccn2)cc1)NC(=O)[C@@H](NC(=O)OC)C(C)(C)C)OC(=O)[C@@H](N)CC(C)C)C(C)(C)C [mPEG5-Atazanavir-L-Leucine] |  |  |  |  |  |  |  | MRT last ([1]; oral): 1.71 ± 0.327 h; AUC ([1]; oral): 487 ± 348 ng·h/mL; Cmax ([1]; oral): 191 ± 85.6 ng/mL; half-life ([1]; oral): 142 ± 131 min
CCOC(=O)OC(CN(Cc1ccc(-c2ccccn2)cc1)NC(=O)C(NC(=O)OC)C(C)(C)C)C(Cc1ccccc1)NC(=O)C(NC(=O)OCCOCCOCCOCCOCCOCCOC)C(C)(C)C (stereo not shown) [mPEG6-ATV-Ethyl Carbonate, mPEG6-Atazanavir Ethyl Carbonate] |  |  |  | 207 | 19.9 | 10.3 | 1.50 | C24 Mean [2, 3]: 4.39
COCCOCCOCCOCCOCCOCCOC(=O)NC(C(=O)NC(Cc1ccccc1)C(CN(Cc1ccc(-c2ccccn2)cc1)NC(=O)C(NC(=O)OC)C(C)(C)C)OC(=O)CNC(=O)C(N)C(C)C)C(C)(C)C.Cl (stereo not drawn) [Val-Gly-mPEG6-ATV, Val-GIy-mPEG6-Atazanavir Hydrochloride] |  |  |  | 194 | 5.11 | 24.3 | 7.00 | 
CCCCCC(=O)O[C@@H](CN(Cc1ccc(-c2ccccn2)cc1)NC(=O)[C@@H](NC(=O)OC)C(C)(C)C)[C@H](Cc1ccccc1)NC(=O)[C@@H](NC(=O)OCCOCCOCCOCCOCCOC)C(C)(C)C [C5H11CO-mPE5-ATV, C5H11CO-mPEG5-atazanavir] |  |  |  |  |  |  |  | AUCall Mean [2, 4]: 23.7 ng·h/mL; Cmax Mean [2, 4]: 7.38 ng/mL; MRT last Mean [2, 4]: 2.42 h; Tmax Median [2, 4]: 0.500 h
CCCCC(=O)O[C@@H](CN(Cc1ccc(-c2ccccn2)cc1)NC(=O)[C@@H](NC(=O)OC)C(C)(C)C)[C@H](Cc1ccccc1)NC(=O)[C@@H](NC(=O)OCCOCCOCCOCCOCCOC)C(C)(C)C [C4H9CO-PEG5-ATV, C4H9CO-mPEG5-atazanavir] |  |  |  |  |  |  |  | AUCall Mean [2, 4]: 39.3 ng·h/mL; Cmax Mean [2, 4]: 9.46 ng/mL; MRT last Mean [2, 4]: 2.43 h; Tmax Median [2, 4]: 0.750 h
COCCOCCOCCOCCOCCOCCOC(=O)N[C@H](C(=O)N[C@@H](Cc1ccccc1)[C@H](CN(Cc1ccc(-c2ccccn2)cc1)NC(=O)[C@@H](NC(=O)OC)C(C)(C)C)OC(=O)[C@H](Cc1ccccc1)NC(=O)[C@@H](N)Cc1ccccc1)C(C)(C)C.Cl [Phe-Phe-mPEG6-ATV, Phe-Phe-mPEG6-Atazanavir Hydrochloride] |  |  |  | 279 | 27.0 | 16.2 | 2.00 | 
COCCOCCOCCOCCOCCOC(=O)N[C@H](C(=O)N[C@@H](Cc1ccccc1)[C@H](CN(Cc1ccc(-c2ccccn2)cc1)NC(=O)[C@@H](NC(=O)OC)C(C)(C)C)OC(=O)CNC(=O)[C@@H](N)C(C)C)C(C)(C)C [Val-Gly-mPEG5-Atazanavir HCl, Val-Gly-mPEG5-Atazanavir Hydrochloride] | 0.779 ± 0.513 | 14.9 ± 18.7 | 33.7 ± 53.9 |  |  |  |  | half-life ([1]; in vivo): 177 min
CCOCOC(CN(Cc1ccc(-c2ccccn2)cc1)NC(=O)C(NC(=O)OC)C(C)(C)C)C(Cc1ccccc1)NC(=O)C(NC(=O)OCCOCCOCCOCCOCCOCCOC)C(C)(C)C (stereo not shown) [Methyl ethyl ether mPEG6-ATV, mPEG6-Atazanavir Methyl Ethyl Ether] |  |  |  | 202 | 38.3 | 10.1 | 2.00 | C24 Mean [2, 3]: 0.00
